BindingDB's records for doi:10.1021/jm0256169 (Eli Lilly, 2003)

Key:
[1] = molecular target: cAMP-dependent protein kinase catalytic subunit alpha (Bos taurus, UniProt P00517); experiment: Kinase Inhibition Assay; details: 25 °C
Experimental: (§1) In vitro kinase assay using purified enzyme, was incubated at room temperature with substrate, and test compounds in the presence of ATP/[gamma-33P]ATP. 33P incorporation was measured with a Top Count (Packard). IC50 is the inhibitor concentration which inhibits 50% of kinase activity that catalyzes the transfer of the terminal phosphate from 33P labeled ATP to the substrate.

[2] = molecular target: Calcium/calmodulin-dependent protein kinase type II subunit alpha (Rattus norvegicus, UniProt P11275); experiment: Kinase Inhibition Assay; details: 25 °C
Experimental: as §1

Calcium/calmodulin-dependent protein kinase type II subunit alpha, sequence (P11275 whole entry): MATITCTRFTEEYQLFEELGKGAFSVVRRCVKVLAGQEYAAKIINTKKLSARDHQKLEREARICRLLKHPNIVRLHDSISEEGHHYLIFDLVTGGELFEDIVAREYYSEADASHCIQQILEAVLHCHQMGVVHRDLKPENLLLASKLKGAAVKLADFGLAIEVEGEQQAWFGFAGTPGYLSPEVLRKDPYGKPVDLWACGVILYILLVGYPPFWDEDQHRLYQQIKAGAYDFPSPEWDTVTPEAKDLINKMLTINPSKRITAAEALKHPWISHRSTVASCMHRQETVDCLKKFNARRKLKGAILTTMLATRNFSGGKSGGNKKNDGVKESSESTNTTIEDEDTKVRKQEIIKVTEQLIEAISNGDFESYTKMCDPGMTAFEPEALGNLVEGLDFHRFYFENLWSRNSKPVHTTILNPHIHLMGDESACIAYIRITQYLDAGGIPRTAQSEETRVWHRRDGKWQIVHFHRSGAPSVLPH

Which IC50 [1] does the source give for `O=C1NC(=O)c2c1c1c3ccccc3[nH]c1c1[nH]c3c(Br)cccc3c21` [5-bromo-3,13,23-triazahexacyclo[14.7.0.0^{2,10}.0^{4,9}.0^{11,15}.0^{17,22}]tricosa-1(16),2(10),4(9),5,7,11(15),17(22),18,20-nonaene-12,14-dione] here?
Its IC50 is > 20000 nM.

For `O=C1NC(=O)c2c1c1c3ccccc3[nH]c1c1[nH]c3ccccc3c21` [6,7,12,13-Tetrahydro-5,7-dioxo-5H-indolo[2,3-a]pyrrolo[3,4-c]carbazole], which IC50 [1] is on record?
Its IC50 is > 2000 nM.

`O=C1NC(=O)c2c1c1c3ccccc3[nH]c1c1[nH]c3cc(C(F)(F)F)ccc3c21` [6-(trifluoromethyl)-3,13,23-triazahexacyclo[14.7.0.0^{2,10}.0^{4,9}.0^{11,15}.0^{17,22}]tricosa-1(16),2(10),4(9),5,7,11(15),17(22),18,20-nonaene-12,14-dione] was tested. Which IC50 [2] did it give?
The IC50 was > 2000 nM.

What about the IC50 [1] of the same compound?
The IC50 was > 2000 nM.

For `O=C1NC(=O)c2c1c1c3ccccc3[nH]c1c1[nH]c3cc(Br)ccc3c21` [6-bromo-3,13,23-triazahexacyclo[14.7.0.0^{2,10}.0^{4,9}.0^{11,15}.0^{17,22}]tricosa-1(16),2(10),4(9),5,7,11(15),17(22),18,20-nonaene-12,14-dione], which EC50 [2] is on record?
Its EC50 is 70 nM.

And the IC50 [1]?
The IC50 was > 20000 nM.

What does the source list for `COc1ccc2c(c1)[nH]c1c3[nH]c4cc(Br)ccc4c3c3c(c21)C(=O)NC3=O` [6-bromo-20-methoxy-3,13,23-triazahexacyclo[14.7.0.0^{2,10}.0^{4,9}.0^{11,15}.0^{17,22}]tricosa-1(16),2(10),4(9),5,7,11(15),17(22),18,20-nonaene-12,14-dione]?
IC50 [2]: > 2000 nM; IC50 [1]: > 2000 nM

For `O=C1NC(=O)c2c1c1c3ccccc3[nH]c1c1[nH]c3cc(Cl)ccc3c21` [6-chloro-3,13,23-triazahexacyclo[14.7.0.0^{2,10}.0^{4,9}.0^{11,15}.0^{17,22}]tricosa-1(16),2(10),4(9),5,7,11(15),17(22),18,20-nonaene-12,14-dione], which IC50 [1] is on record?
The IC50 was > 2000 nM.

Which EC50 [2] does the source give for `O=C1NC(=O)c2c1c1c3ccccc3[nH]c1c1[nH]c3cc(F)ccc3c21` [6-fluoro-3,13,23-triazahexacyclo[14.7.0.0^{2,10}.0^{4,9}.0^{11,15}.0^{17,22}]tricosa-1(16),2(10),4(9),5,7,11(15),17(22),18,20-nonaene-12,14-dione] here?
The EC50 was 40 nM.

And the IC50 [1]?
The IC50 was > 2000 nM.

For `COc1ccc2c(c1)[nH]c1c3[nH]c4ccccc4c3c3c(c21)C(=O)NC3=O` [6-methoxy-3,13,23-triazahexacyclo[14.7.0.0^{2,10}.0^{4,9}.0^{11,15}.0^{17,22}]tricosa-1(16),2(10),4(9),5,7,11(15),17(22),18,20-nonaene-12,14-dione], which IC50 [1] is on record?
Its IC50 is > 2000 nM.

With `Cc1ccc2c(c1)[nH]c1c3[nH]c4ccccc4c3c3c(c21)C(=O)NC3=O` [6-methyl-3,13,23-triazahexacyclo[14.7.0.0^{2,10}.0^{4,9}.0^{11,15}.0^{17,22}]tricosa-1(16),2(10),4(9),5,7,11(15),17(22),18,20-nonaene-12,14-dione] as the compound, how does the IC50 [1] read?
Its IC50 is > 2000 nM.

What does the source list for `O=C1NC(=O)c2c1c1c3ccccc3[nH]c1c1[nH]c3ccc(Br)cc3c21` [7-bromo-3,13,23-triazahexacyclo[14.7.0.0^{2,10}.0^{4,9}.0^{11,15}.0^{17,22}]tricosa-1(16),2(10),4(9),5,7,11(15),17(22),18,20-nonaene-12,14-dione]?
EC50 [2]: 70 nM; IC50 [2]: < 1250 nM; IC50 [1]: > 20000 nM

What does the source list for `Cn1c2ccccc2c2c3c(c4c5ccc(Br)cc5[nH]c4c21)C(=O)NC3=O` [indolocarbazole deriv. 4(f)]?
EC50 [2]: 80 nM; IC50 [1]: > 2000 nM

With `Cn1c2ccccc2c2c3c(c4c5ccc(F)cc5[nH]c4c21)C(=O)NC3=O` [indolocarbazole deriv. 4(h)] as the compound, how does the IC50 [2] read?
The IC50 was > 2000 nM.

And the IC50 [1]?
Its IC50 is > 2000 nM.
